# Measured values from patent US11772041B2, “Composite amine absorbent, and device and method for removing CO2 or H2S, or both of CO2 and H2S” (MITSUBISHI HEAVY INDUSTRIES, LTD., priority 2019, dated 2023).
# How the values were obtained:
# [1] = Solubility in water of ether bond-containing compounds; format: physicochemical
# Source text: The solubilities in water of the first ether bond-containing compound (propylene glycol monopropyl ether) in Test Example 1, the first ether bond-containing compound (dipropylene glycol monopropyl ether) in Test Example 7, and the ether bond-containing compound of the chemical formula I wherein R^2 has 4 (C4) or more carbon atoms (butylene glycol monobutyl ether) were compared.
# The solubilities in water of the first ether bond-containing compound (propylene glycol monopropyl ether) in Test Example 1, the ether bond-containing compound (dipropylene glycol monopropyl ether) in Test Example 7, and the ether bond-containing compound of the chemical formula I wherein R^3 is an alkyl group (propylene glycol dibutyl ether) were compared.
# [2] = Boiling point of ether bond-containing compounds; settings: Table 5, Test Example 23; under atmospheric pressure
structure (smiles),measurement,setting,value
"CCCCOCCCCO [Butylene glycol monobutyl ether, butylene glycol monobutyl ether]",Solubility in water (% by weight),"[1]; Table 3, Test Example 21",About 1 % by weight
"CCCCOCC(C)OCCCC (stereo not drawn) [Propylene glycol dibutyl ether, propylene glycol dibutyl ether]",Solubility in water (% by weight),"[1]; Table 4, Test Example 22",Less than 1 % by weight
"COCCOC(C)=O [Ethylene glycol monomethyl ether acetate, ethylene glycol monomethyl ether acetate]",Boiling point (° c.),[2],143 ° c.
